Legend:
H9 immortalized T-cells = assay: Inhibition of proliferation of H9 cells; type: cell-based; details: Homo sapiens, T-cell; dose required to reduce the cell number by 50%, H9; read-out: CD50 (the source's name)
From the text: (§1) Originally FTdR was developed as a cytostatic agent (P. Langen et al., Acta biol. med. Germ. 23, 759, 1969; and U.S. Pat. No. 3,775,397) and, therefore, its cytostatic efficacy has been examined in extensive prior studies. […] Ehrlich-mouse-ascites-carcinoma cells (EMAC) represents an exception to that finding, and this is probably connected to its high capability of phosphorylation of FTdR, which is 10 times higher than in human cells. The fast reversibility of the cytostatic effects on EMAC cells was regarded as a special property of this compound (P. Langen et al., Europ. J. Cancer. 14. 349, 1978). The antiproliferative effect of FTdR and FddUrd, and in comparison thereto of N3 -TdR were tested on human cell lines with regard to a possible use in humans. […] When FTdR is compared to N3 -TdR. The effects are very similar, however somewhat lower in each case for N3 -TdR than for FTdR.
(§2) CD50 : inhibitory dose required to reduce the cell number by 50%

[1] = system: K-37 immortalized T-cells; assay: Inhibition of proliferation of K-37 cells; type: cell-based; details: Homo sapiens, T-cell; dose required to reduce the cell number by 50%, K-37; read-out: CD50 (the source's name)
From the text: as §1, §2

in vitro = details: human, mt-4 cells
Description: (§3) Under in vitro conditions immortalized T-lymphocytes can be killed within few days by the cytopathic effect of HIV. […] For this purpose about 20,000 MT-4 cells (Harada et al. Science 229, 563 (1985)) Were infected with HIV (titer: 0.04 m.o.i.) and incubated in the presence or absence of varying concentrations of compounds according to formula I, with 10% fetal calf serum (FCS) in 200 μl RPMI medium. After 6 days of incubation the viable cells were counted that were excluded from trypan blue staining.

[2] = system: K-562 acute myeloic leukemia; assay: Inhibition of proliferation of K-562 cells; type: cell-based; details: Homo sapiens, K562; dose required to reduce the cell number by 50%, K-562; read-out: CD50 (the source's name)
From the text: as §1, §2

HIV = assay: Inhibition of the cytopathic effect of HIV on MT-4 cells; type: cell-based; details: Human immunodeficiency virus 1, MT4, 144 h; MT-4 cells, 6 days of incubation; read-out: 50% antiviral dose (ED50)
Description: as §3

[3] = system: REH acute lymphatic leukemia; assay: Inhibition of proliferation of REH cells; type: cell-based; details: Homo sapiens, dose required to reduce the cell number by 50%, read-out: CD50 (the source's name)
From the text: as §1, §2

[4] = biological target: T1, cellular DNA polymerase β (Bos taurus, UniProt Q27958); assay: Effect on cellular DNA polymerase β; type: biochemical; details: enzyme purified from calf thymus; read-out: ID50 cellular polymerase β
T1 construct: purified from calf thymus; from tissue; host or cells: calf thymus
From the text: (§4) The strong inhibiting effect of 3'-fluoro-substituted deoxynucleotides against HIV-reverse transcriptase can be utilized therapeutically only if the cellular DNA polymerases, especially the DNA polymerase α which is required for the replication of the cellular DNA, remain substantially unaffected. […] The ID50 values for the DNA polymerase β responsible for cellular DNA repair vary between 1,8-15 μm. Both enzymes cellular DNA polymerase α and β were purified from calf thymus and tested according to the method of E. Matthes et al., Biomed. Biochim. Acta 44. K63 (1985).

[5] = biological target: T2, HIV-associated reverse transcriptase (HIV-RT) (Human immunodeficiency virus type 1 group M subtype B, UniProt P04585); assay: Inhibition of HIV-associated reverse transcriptase (polymerization of artificial templates); type: biochemical
T2 construct: HIV-associated reverse transcriptase (HIV-RT)
From the text: At first the triphosphates of some compounds according to formula I were investigated for their ability to inhibit the polymerization of artificial templates (such as polyAoligodT and polyColigodG) catalyzed by HIV-associated reverse transcriptase (HIV-RT) according to the method described by A. D. Hoffman et al., Virology 147, 326, 1985. […] FdTTP, FdUTP and FdGTP are among the strongest inhibitors found so far for HIV-RT. In comparison the ID50 for 3'-azidothymidinetriphosphate was estimated under our conditions to be about […].

[6] = biological target: RLV-associated reverse transcriptase; assay: Inhibition of RLV-associated reverse transcriptase; type: biochemical, Rauscher murine leukemia virus
[7] = biological target: T3, cellular DNA polymerase α (Bos taurus, UniProt A0AAA9TD94); assay: Effect on cellular DNA polymerase α; type: biochemical; details: enzyme purified from calf thymus; read-out: ID50 cellular polymerase α
T3 construct: purified from calf thymus; from tissue; host or cells: calf thymus
T3 sequence (A0AAA9TD94 1-1441): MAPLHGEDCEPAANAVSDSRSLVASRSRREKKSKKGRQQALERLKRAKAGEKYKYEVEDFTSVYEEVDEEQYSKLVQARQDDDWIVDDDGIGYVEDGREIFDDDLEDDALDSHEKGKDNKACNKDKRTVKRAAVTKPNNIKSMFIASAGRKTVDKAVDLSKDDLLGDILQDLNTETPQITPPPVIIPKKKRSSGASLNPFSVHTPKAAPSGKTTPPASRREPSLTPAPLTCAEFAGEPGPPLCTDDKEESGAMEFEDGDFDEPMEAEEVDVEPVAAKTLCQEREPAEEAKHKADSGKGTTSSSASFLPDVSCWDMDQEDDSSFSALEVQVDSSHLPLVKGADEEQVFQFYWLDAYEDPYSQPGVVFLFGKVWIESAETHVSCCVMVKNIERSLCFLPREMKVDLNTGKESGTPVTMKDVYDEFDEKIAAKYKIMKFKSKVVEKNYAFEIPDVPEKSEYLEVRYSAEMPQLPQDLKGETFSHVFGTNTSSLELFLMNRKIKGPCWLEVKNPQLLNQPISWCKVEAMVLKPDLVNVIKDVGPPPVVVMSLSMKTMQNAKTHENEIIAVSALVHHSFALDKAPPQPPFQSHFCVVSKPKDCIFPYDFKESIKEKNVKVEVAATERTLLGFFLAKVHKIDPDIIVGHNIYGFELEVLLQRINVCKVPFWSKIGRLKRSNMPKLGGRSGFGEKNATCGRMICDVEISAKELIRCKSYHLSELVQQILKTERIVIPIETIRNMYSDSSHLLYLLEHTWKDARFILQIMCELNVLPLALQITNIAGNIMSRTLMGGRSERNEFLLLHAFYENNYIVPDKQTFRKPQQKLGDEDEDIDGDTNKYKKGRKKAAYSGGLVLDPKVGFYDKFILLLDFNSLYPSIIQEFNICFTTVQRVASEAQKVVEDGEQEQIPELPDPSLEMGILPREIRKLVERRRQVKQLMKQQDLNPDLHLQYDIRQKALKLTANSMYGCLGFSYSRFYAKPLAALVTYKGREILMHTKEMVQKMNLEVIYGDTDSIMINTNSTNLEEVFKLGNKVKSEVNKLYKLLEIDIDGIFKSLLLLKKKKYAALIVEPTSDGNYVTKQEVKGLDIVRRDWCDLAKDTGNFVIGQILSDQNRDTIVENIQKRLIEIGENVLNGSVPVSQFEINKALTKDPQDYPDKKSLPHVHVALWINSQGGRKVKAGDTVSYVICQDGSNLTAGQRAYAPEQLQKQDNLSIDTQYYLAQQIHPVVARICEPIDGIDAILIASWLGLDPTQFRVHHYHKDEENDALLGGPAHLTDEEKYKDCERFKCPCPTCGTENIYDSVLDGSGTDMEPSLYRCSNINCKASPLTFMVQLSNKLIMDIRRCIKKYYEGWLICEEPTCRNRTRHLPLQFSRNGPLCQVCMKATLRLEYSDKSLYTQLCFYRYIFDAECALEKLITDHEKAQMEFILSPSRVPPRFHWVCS
From the text: as §4

EC50 (HIV) [µM]	SMILES	IC50 (H9 immortalized T-cells) [µM]	IC50 [1] [µM]	CC50 at 144 h (in vitro) [µM]	IC50 [2] [µM]	IC50 [3] [µM]	IC50 [4] [µM]	mode of action (type of inhibition) [5]	IC50 ([5]; read-out: ID50 HIV-associated reverse transcriptase) [µM]	ID50 RLV-associated reverse transcriptase [6] [µM]	RLV-associated RT less sensitive to the inhibitor than HIV-associated RT ([6]; ratio of ID50 values) [times]	IC50 [7] [µM]
0.275	O=c1ccn([C@H]2C[C@H](F)[C@@H](CO)O2)c(=O)[nH]1 [FddUrd, 2'-3'-dideoxy-3'-fluorouridine]	> 2500	> 1000	75	> 1000	> 9000	–	–	–	–	–	–
–	Cc1cn([C@H]2C[C@H](F)[C@@H](COP(=O)(O)OP(=O)(O)OP(=O)(O)O)O2)c(=O)[nH]c1=O [FdTTP, 2'-3'-dideoxy-3'-fluorothymidine-5'-triphosphate]	–	–	–	–	–	2.2	competitive type of inhibition	0.05	0.5	10	> 200
